Assay results reported in article PMC5362750, “Discovery of Potent, Selective, and Orally Bioavailable Small-Molecule Modulators of the Mediator Complex-Associated Kinases CDK8 and CDK19” (Journal of Medicinal Chemistry, 2016).

How the values were obtained:
CRAF = CRAF (Homo sapiens, UniProt P04049); assay: Kinase panel (Millipore); assay type: biochemical; conditions: 1 µM, ATP at Km
RET(V804L) = RET(V804L) (Homo sapiens, UniProt P07949, V804L); conditions: 1 µM, ATP at Km
BRSK1 = molecular target: T1, BRSK1 (Homo sapiens, UniProt Q8TDC3); assay: Kinase panel (Millipore); assay type: biochemical; conditions: 1 µM, ATP at Km
T1 construct: purchased Millipore (KinaseProfiler) kinase panel

MLK1 = molecular target: T2, MLK1 (Homo sapiens, UniProt P80192); assay: Kinase panel (Millipore); assay type: biochemical; conditions: 1 µM, ATP at Km
T2 construct: purchased Millipore (KinaseProfiler) kinase panel

PIM-3 = PIM-3 (Homo sapiens, UniProt Q86V86); assay: Kinase panel (Millipore); assay type: biochemical; conditions: 1 µM, ATP at Km
[1] = tested on: Ca2+ channel (L, diltiazem site) (benzothiazepines); conditions: 10 µM, antagonist radioligand
TBK1 = molecular target: T3, TBK1 (Homo sapiens, UniProt Q9UHD2); assay: Kinase panel (Millipore); assay type: biochemical; conditions: 1 µM, ATP at Km
T3 construct: purchased Millipore (KinaseProfiler) kinase panel

PKBALPHA = PKBALPHA (Homo sapiens, UniProt P31749); assay: Kinase panel (Millipore); assay type: biochemical; conditions: 1 µM, ATP at Km
CAMKI = CAMKI (Homo sapiens, UniProt Q14012); assay: Kinase panel (Millipore); assay type: biochemical; conditions: 1 µM, ATP at Km
MRCKALPHA = molecular target: T4, MRCKALPHA (Homo sapiens, UniProt Q5VT25); assay: Kinase panel (Millipore); assay type: biochemical; conditions: 1 µM, ATP at Km
T4 construct: purchased Millipore (KinaseProfiler) kinase panel
T4 sequence (Q5VT25 whole entry): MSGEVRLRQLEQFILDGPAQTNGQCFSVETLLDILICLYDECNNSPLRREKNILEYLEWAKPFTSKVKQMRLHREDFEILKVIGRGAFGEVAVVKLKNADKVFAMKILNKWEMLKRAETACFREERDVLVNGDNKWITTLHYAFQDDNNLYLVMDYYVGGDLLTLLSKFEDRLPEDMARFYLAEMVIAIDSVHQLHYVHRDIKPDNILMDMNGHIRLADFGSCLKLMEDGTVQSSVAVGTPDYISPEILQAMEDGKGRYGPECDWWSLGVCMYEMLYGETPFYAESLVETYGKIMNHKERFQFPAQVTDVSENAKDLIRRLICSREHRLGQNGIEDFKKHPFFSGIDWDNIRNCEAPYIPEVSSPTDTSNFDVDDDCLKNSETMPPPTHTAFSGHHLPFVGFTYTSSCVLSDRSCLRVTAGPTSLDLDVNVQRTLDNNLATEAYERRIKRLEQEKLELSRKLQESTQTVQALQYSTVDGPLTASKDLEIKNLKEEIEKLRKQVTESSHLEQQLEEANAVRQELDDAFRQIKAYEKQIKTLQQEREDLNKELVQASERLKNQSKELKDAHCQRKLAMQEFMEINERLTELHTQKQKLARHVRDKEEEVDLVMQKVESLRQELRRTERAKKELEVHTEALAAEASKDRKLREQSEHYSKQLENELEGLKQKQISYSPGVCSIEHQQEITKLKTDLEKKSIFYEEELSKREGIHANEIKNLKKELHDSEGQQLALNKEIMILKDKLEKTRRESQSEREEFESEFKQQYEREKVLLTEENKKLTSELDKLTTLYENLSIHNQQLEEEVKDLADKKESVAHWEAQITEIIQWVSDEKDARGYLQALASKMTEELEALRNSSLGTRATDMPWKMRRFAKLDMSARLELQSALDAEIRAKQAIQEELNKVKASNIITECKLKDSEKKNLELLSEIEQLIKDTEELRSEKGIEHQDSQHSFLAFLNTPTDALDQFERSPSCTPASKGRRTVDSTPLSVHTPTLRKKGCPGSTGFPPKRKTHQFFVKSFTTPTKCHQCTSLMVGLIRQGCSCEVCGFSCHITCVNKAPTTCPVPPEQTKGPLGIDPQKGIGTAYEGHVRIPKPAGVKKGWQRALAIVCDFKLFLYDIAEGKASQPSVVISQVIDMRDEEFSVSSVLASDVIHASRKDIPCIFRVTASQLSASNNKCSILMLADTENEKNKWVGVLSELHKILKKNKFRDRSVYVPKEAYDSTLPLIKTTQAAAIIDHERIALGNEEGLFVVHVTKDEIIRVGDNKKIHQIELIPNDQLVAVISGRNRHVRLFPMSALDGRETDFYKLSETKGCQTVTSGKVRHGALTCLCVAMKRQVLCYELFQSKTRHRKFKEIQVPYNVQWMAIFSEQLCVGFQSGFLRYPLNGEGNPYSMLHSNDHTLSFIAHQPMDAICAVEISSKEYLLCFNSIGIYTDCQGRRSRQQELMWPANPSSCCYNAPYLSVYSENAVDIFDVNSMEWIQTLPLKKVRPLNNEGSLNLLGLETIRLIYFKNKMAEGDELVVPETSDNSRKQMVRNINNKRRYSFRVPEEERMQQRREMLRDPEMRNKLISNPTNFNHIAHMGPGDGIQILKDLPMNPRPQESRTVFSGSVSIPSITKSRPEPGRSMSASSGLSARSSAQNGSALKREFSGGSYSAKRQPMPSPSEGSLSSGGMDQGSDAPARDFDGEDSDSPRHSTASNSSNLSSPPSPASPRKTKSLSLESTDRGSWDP

FGFR2(N549H) = FGFR2(N549H) (Homo sapiens, UniProt P21802, N549H); conditions: 1 µM, ATP at Km
5-HT2A (h) = 5-HT2A (h) (Homo sapiens, UniProt P28223); assay: biochemical; conditions: read-out: % Inhibition of Control Specific Binding
BTK = BTK (Homo sapiens, UniProt Q06187); assay: Kinase panel (Millipore); assay type: biochemical; conditions: 1 µM, ATP at Km
AURKA = AURKA (Homo sapiens, UniProt O14965); assay: Kinase panel (Millipore); assay type: biochemical; conditions: 1 µM, ATP at Km
PAK6 = PAK6 (Homo sapiens, UniProt Q9NQU5); assay: Kinase panel (Millipore); assay type: biochemical; conditions: 1 µM, ATP at Km
FES = FES (Homo sapiens, UniProt P07332); assay: Kinase panel (Millipore); assay type: biochemical; conditions: 1 µM, ATP at Km
CKIT = molecular target: T5, CKIT (Homo sapiens, UniProt P10721); assay: Kinase panel (Millipore); assay type: biochemical; conditions: 1 µM, ATP at Km
T5 construct: purchased Millipore (KinaseProfiler) kinase panel
T5 sequence (P10721 26-976): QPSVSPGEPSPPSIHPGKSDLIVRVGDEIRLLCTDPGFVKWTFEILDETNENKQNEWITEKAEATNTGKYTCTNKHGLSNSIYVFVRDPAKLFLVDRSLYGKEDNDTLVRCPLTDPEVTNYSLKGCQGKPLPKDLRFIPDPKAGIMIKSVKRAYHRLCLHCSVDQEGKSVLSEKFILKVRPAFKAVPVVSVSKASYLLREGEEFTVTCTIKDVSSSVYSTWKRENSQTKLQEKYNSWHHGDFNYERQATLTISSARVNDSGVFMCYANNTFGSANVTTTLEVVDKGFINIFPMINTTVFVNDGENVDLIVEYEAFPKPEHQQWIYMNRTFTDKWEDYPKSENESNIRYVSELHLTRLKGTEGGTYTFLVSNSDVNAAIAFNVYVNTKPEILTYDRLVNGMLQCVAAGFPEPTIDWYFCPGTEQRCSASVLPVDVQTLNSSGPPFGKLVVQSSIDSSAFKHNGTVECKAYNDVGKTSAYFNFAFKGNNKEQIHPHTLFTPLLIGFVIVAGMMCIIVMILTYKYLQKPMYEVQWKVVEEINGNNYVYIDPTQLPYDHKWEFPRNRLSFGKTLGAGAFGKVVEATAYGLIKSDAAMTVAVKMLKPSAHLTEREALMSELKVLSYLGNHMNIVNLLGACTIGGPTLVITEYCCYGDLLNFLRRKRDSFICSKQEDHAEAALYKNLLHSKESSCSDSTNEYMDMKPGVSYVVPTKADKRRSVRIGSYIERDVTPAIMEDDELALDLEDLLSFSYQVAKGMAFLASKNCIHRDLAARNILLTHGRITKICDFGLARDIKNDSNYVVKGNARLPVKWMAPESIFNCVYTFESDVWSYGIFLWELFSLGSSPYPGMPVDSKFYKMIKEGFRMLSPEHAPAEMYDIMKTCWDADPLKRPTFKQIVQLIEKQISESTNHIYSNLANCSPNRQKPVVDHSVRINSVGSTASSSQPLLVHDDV

CK1DELTA = CK1DELTA (Homo sapiens, UniProt P48730); assay: Kinase panel (Millipore); assay type: biochemical; conditions: 1 µM, ATP at Km
TSSK2 = molecular target: T6, TSSK2 (Homo sapiens, UniProt Q96PF2); assay: Kinase panel (Millipore); assay type: biochemical; conditions: 1 µM, ATP at Km
T6 construct: purchased Millipore (KinaseProfiler) kinase panel

SRPK1 = molecular target: T7, SRPK1 (Homo sapiens, UniProt Q96SB4); assay: Kinase panel (Millipore); assay type: biochemical; conditions: 1 µM, ATP at Km
T7 construct: purchased Millipore (KinaseProfiler) kinase panel

[…](V561D) = […](V561D) (Homo sapiens, UniProt P16234, V561D); conditions: 1 µM, ATP at Km
TNF-alpha (h) = conditions: 10 µM, agonist radioligand
cMET (Y1248H) = cMET (Y1248H) (Homo sapiens, UniProt P08581, Y1230H); conditions: 1 µM, ATP at Km
[2] = tested on: sigma (non-selective) (h); conditions: 10 µM, agonist radioligand
IGF-1R, ACTIVATED = molecular target: T8, IGF-1R, ACTIVATED (Homo sapiens, UniProt P08069); assay: Kinase panel (Millipore); assay type: biochemical; conditions: 1 µM, ATP at Km
T8 construct: purchased Millipore (KinaseProfiler) kinase panel

PKG1ALPHA = PKG1ALPHA (Homo sapiens, UniProt Q13976); assay: Kinase panel (Millipore); assay type: biochemical; conditions: 1 µM, ATP at Km
Chain of PKG1ALPHA (Q13976 whole entry): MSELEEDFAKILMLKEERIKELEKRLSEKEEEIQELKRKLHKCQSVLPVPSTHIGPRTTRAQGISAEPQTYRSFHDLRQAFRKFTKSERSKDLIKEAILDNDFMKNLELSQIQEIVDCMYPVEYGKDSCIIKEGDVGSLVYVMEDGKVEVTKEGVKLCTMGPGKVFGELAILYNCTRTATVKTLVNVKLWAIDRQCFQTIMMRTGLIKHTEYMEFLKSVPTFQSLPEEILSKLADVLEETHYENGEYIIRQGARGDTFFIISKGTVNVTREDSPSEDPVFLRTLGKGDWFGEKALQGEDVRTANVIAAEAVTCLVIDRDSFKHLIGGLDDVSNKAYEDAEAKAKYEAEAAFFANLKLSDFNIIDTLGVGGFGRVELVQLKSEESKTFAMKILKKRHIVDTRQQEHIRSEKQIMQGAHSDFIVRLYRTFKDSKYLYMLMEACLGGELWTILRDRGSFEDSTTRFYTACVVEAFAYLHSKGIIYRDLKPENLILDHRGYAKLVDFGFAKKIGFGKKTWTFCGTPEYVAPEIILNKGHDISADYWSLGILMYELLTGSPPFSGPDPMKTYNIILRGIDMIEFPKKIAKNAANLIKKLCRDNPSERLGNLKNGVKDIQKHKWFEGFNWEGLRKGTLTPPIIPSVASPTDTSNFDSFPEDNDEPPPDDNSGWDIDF

MTOR = MTOR (Homo sapiens, UniProt P42345); assay: Kinase panel (Millipore); assay type: biochemical; conditions: 1 µM, ATP at Km
RON = molecular target: T9, RON (Homo sapiens, UniProt Q04912); assay: Kinase panel (Millipore); assay type: biochemical; conditions: 1 µM, ATP at Km
T9 construct: purchased Millipore (KinaseProfiler) kinase panel

SRPK2 = molecular target: T10, SRPK2 (Homo sapiens, UniProt P78362); assay: Kinase panel (Millipore); assay type: biochemical; conditions: 1 µM, ATP at Km
T10 construct: purchased Millipore (KinaseProfiler) kinase panel
T10 sequence (P78362 whole entry): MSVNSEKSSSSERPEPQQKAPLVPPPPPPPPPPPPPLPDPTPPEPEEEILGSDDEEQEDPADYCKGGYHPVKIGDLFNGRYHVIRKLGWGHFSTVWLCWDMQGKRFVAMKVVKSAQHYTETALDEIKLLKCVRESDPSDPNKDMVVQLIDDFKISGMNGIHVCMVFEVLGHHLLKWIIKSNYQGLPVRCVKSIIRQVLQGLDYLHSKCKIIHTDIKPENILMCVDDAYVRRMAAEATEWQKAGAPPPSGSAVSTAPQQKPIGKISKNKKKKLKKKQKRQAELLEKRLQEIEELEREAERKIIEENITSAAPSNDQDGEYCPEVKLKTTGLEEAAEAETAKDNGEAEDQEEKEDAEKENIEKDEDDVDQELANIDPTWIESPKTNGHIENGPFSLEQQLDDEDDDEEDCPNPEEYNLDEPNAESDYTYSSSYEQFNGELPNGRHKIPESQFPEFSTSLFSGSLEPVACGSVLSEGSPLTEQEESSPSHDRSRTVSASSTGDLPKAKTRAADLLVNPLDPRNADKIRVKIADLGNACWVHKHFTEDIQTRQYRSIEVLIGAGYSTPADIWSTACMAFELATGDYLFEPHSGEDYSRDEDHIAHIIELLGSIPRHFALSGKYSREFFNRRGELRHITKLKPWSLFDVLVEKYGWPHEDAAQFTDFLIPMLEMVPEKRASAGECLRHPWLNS

FLT4 = molecular target: T11, FLT4 (Homo sapiens, UniProt P35916); assay: Kinase panel (Millipore); assay type: biochemical; conditions: 1 µM, ATP at Km
T11 construct: purchased Millipore (KinaseProfiler) kinase panel

[3] = tested on: APC-mutant SW620 human colorectal carcinoma xenograft
PRK2 = molecular target: T12, PRK2 (Homo sapiens, UniProt Q16513); assay: Kinase panel (Millipore); assay type: biochemical; conditions: 1 µM, ATP at Km
T12 construct: purchased Millipore (KinaseProfiler) kinase panel

HIPK1 = molecular target: T13, HIPK1 (Homo sapiens, UniProt Q86Z02); assay: Kinase panel (Millipore); assay type: biochemical; conditions: 1 µM, ATP at Km
T13 construct: purchased Millipore (KinaseProfiler) kinase panel

DRAK1 = molecular target: T14, DRAK1 (Homo sapiens, UniProt Q9UEE5); assay: Kinase panel (Millipore); assay type: biochemical; conditions: 1 µM, ATP at Km
T14 construct: purchased Millipore (KinaseProfiler) kinase panel
T14 sequence (Q9UEE5 whole entry): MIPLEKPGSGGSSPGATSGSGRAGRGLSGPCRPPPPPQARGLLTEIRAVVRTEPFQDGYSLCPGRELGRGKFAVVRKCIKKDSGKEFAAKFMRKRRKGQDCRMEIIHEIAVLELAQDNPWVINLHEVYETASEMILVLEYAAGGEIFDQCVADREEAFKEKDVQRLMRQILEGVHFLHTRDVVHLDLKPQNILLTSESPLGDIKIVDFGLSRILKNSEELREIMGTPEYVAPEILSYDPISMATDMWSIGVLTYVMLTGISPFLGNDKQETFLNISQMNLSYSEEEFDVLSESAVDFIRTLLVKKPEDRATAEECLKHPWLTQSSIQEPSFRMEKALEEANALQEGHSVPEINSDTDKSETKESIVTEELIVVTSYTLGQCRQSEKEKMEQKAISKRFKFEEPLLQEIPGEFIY

[4] = human
SRC = SRC (Homo sapiens, UniProt P12931); assay: Kinase panel (Millipore); assay type: biochemical; conditions: 1 µM, ATP at Km
ABL (H396P) = ABL (H396P) (Homo sapiens, UniProt P00519, H396P); conditions: 1 µM, ATP at Km
MAPK1 = MAPK1 (Homo sapiens, UniProt P27361); assay: Kinase panel (Millipore); assay type: biochemical; conditions: 1 µM, ATP at Km
PTK5 = molecular target: T15, PTK5 (Homo sapiens, UniProt P42685); assay: Kinase panel (Millipore); assay type: biochemical; conditions: 1 µM, ATP at Km
T15 construct: purchased Millipore (KinaseProfiler) kinase panel
T15 sequence (P42685 whole entry): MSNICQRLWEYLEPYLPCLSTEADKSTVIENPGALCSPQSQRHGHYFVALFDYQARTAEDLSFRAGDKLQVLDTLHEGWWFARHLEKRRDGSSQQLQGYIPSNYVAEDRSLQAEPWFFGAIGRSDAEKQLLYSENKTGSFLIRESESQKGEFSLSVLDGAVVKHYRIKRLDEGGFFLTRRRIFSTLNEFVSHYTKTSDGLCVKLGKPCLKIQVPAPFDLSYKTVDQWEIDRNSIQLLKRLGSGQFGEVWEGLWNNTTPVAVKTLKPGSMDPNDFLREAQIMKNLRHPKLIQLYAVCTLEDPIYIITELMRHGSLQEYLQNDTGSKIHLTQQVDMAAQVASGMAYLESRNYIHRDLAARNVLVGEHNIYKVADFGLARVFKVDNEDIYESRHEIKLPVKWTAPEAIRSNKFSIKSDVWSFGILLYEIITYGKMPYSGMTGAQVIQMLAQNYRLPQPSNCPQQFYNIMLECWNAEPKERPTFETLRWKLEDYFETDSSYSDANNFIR

5-HT4e (h) = 5-HT4e (h) (Homo sapiens, UniProt Q13639); assay: biochemical; conditions: read-out: % Inhibition of Control Specific Binding
IGF-1R = molecular target: T16, IGF-1R (Homo sapiens, UniProt P08069); assay: Kinase panel (Millipore); assay type: biochemical; conditions: 1 µM, ATP at Km
T16 construct: purchased Millipore (KinaseProfiler) kinase panel

MST2 = molecular target: T17, MST2 (Homo sapiens, UniProt Q13188); assay: Kinase panel (Millipore); assay type: biochemical; conditions: 1 µM, ATP at Km
T17 construct: purchased Millipore (KinaseProfiler) kinase panel

PDK1 = PDK1 (Homo sapiens, UniProt O15530); assay: Kinase panel (Millipore); assay type: biochemical; conditions: 1 µM, ATP at Km

Q: Which results are given for `Cn1ncc2cc(-c3cnc(N)c(Cl)c3N3CCC4(CCNC4=O)CC3)ccc21` [Compound 109, 8-(2-Amino-3-chloro-5-(1-methyl-1H-indazol-5-yl)pyridin-4-yl)-2,8-diazaspiro[4.5]decan-1-one]?
A: % effect (CRAF): -10%; % effect (RET(V804L)): -7%; % effect (BRSK1): 7%; % effect (MLK1): -10%; % effect (PIM-3): 6%; % Inhibition of Control Specific Binding [1]: 5%; % effect (TBK1): 6%; % effect (PKBALPHA): 3%; % effect (CAMKI): -3%; % effect (MRCKALPHA): -3%; % effect (FGFR2(N549H)): 1%; inhibition at 10 µM (5-HT2A (h)): -10%; % effect (BTK): 6%; % effect (AURKA): -16%; % effect (PAK6): 2%; % effect (FES): -6%; % effect (CKIT): -5%; % effect (CK1DELTA): 18%; % effect (TSSK2): 9%; % effect (SRPK1): -8%; % effect ([…](V561D)): 0%; % Inhibition of Control Specific Binding (TNF-alpha (h)): -8%; % effect (cMET (Y1248H)): -5%; % Inhibition of Control Specific Binding [2]: 12%; % effect (IGF-1R, ACTIVATED): 1%; % effect (PKG1ALPHA): 23%; % effect (MTOR): -3%; % effect (RON): -1%; % effect (SRPK2): 4%; % effect (FLT4): -38%; T/C (final tumor weights) ([3]; 30 mg/kg q.d. oral, P = 0.0241): 45.8; tolerability ([3]; 30 mg/kg q.d. schedule): well tolerated with no significant body weight loss; % effect (PRK2): 1%; % effect (HIPK1): 5%; % effect (DRAK1): 1%; Vd [4]: 1.4 L/kg; clearance [4]: 0.36 L/h/kg; % effect (SRC): 7%; % effect (ABL (H396P)): -4%; % effect (MAPK1): 7%; % effect (PTK5): -12%; inhibition at 10 µM (5-HT4e (h)): -3%; % effect (IGF-1R): -26%; % effect (MST2): -11%; % effect (PDK1): 1%
